Test results as given in patent US20150132747A1, “Treatment of Neurodegeneration and Neuroinflammation” (BIOGEN IDEC MA INC., priority 2009, published 2015).
Counter-ions that a name gives are not always drawn.

Columns and labels:
[1] = test system: human spinal cord astrocytes; assay: Glutathione, metabolic activity and viability of cultured human spinal cord astrocytes; type: cell-based; conditions: 24 hr MMF titration, FIG. 6C
Experimental: Primary cultures of human spinal cord astrocytes were treated for 24 hr with a titration of MMF or DMSO as a diluent control. Following 24 hr incubation with compound, cells were washed 1× with growth media and incubated with the cell-permeant substrate monochlorobimane. When bound to glutathione this substrate increases fluorescence. […] FIG. 6A. Similar MMF treated cells were also incubated with the cell permeant substrate resazurin, which increases fluorescence upon reduction to resorufin by cellular redox mechanisms and is used as a measure of cellular metabolic activity (CellTiter-Blue assay). […] FIG. 6B. To ensure the increases in glutathione and metabolic activity were not simply due to cellular proliferation in response to MMF treatment, parallel dishes of cells were incubated with calcein AM. Cellular esterases cleave this molecule to generate a fluorescent metabolite, which provides a measure of cell viability and relative total cell numbers. […] FIG. 6C.

[2] = test system: human spinal cord astrocytes; assay: H2O2-induced Ca++ mobilization in human spinal cord astrocytes (Calcium4 dye); type: cell-based; conditions: Astrocyte, 24 hr MMF, 50 mM H2O2, FIG. 7C, read-out: EC50, protection against H2O2-induced Ca++ mobilization (non-linear regression)
Experimental: In another experiment, primary cultures of human spinal cord astrocytes were treated for 24 hr with a titration of MMF or DMSO as a diluent control. Following 24 hr incubation with compound, cells were washed 1× with HBSS and incubated with Calcium4 (Molecular Devices) loading dye. This dye permeates into cells and increases fluorescence upon binding of free intracellular Ca^++. Cells were then challenged with 50 mM H2O2 and monitored for changes in fluorescence. […] FIG. 7C.

[3] = test system: human spinal cord astrocytes; assay: H2O2 challenge of human spinal cord astrocytes: viability, metabolism, ATP; type: cell-based; conditions: FIG. 8C
Experimental: In another experiment, primary cultures of human spinal cord astrocytes were treated for 24 hr with a titration of MMF or DMSO as a diluent control. Following 24 hr incubation with compound, cells were washed 1× with HBSS and challenged with […] H2O2 for two hours, then washed in normal growth media, then incubated for an additional 24 hours.

[4] = test system: rat EAE (MOG/IFA immunized Brown Norway rats); assay: Rat EAE model, clinical score; type: in vivo; conditions: FIG. 1A
Experimental: Female Brown Norway rats (Charles River Laboratories) were immunized intradermally at the base of the tail with MOG 1-125 100 ug/rat in IFA at day 0. Day 3 DMF (BG00012) qd 5, 25, 50, 100, 200 mg/kg delivered orally as a suspension in 0.8% HPMC. N=6 per group. Scoring 0=no disease, 1=tail paralysis, 2=hind limb weakness, 3=hind limb paralysis, 4=hind limb paralysis and forelimb weakness, 5=moribund or dead. Experimental in vivo procedures were performed in accordance with Institutional Animal Committee guidelines crEAE was induced by intradermal MOG/IFA immunization in Brown Norway rats. BG00012 was administered orally at a daily interval beginning three days after immunization. […] For the 100 mg/kg treatment group, average disease score at day 28 was 0.71 (n=6, SD=1.17) compared to 2.29 (n=6, SD=1.29) for the vehicle group.

[5] = test system: rat spinal cords (EAE); assay: Histology and morphometry of lumbar spinal cord sections of EAE rats (GFAP, IBA-1, Luxol Fast Blue); type: in vivo
Experimental: Lumbar spinal cord sections were prepared as FFPE sections for immunohistochemistry and processed on DAKO autostainer using GFAP antibody (DAKO), IBA-1 (Wako), CD3 (DAKO). Aperio Spectrum Color Deconvolution software was used for morphometric analysis. […] Panels (a) and (b) are from a rat treated with vehicle alone at 5× and 20× magnification, respectively, while panels (c) and (d) are from a rat treated with 100 mg/kg DMF, shown at 5× and 20× magnification, respectively. […] Morphometry analysis of EAE spinal cords was performed with Aperio software. Histological alterations were quantified with Aperio Image Scope software v10.1. The Color Deconvolution algorithm was used to select intensity thresholds either for brown DAB staining (GFAP and IBA-1 Immunostains) or for bright turquoise blue staining (Luxol Fast Blue). Positive staining was determined by the percent of strong positive stained pixels for each intensity threshold. Three lumbar spinal cord sections were quantitated per rat and the values for percent strong positive pixels were averaged for the final intensity value.

[6] = test system: primary rat astrocytes; assay: Quantitative PCR of gene expression in primary cultured astrocytes, with or without LPS; type: cell-based
Experimental: Rat astrocytes from cortex, hippocampus and striatum (Lonza clontech) were cultured as described by manufacturers protocol. Limiting dilutions of DMF in DMSO were added to cultures for 6 or 24 hours and stimulated with E. Coli LPS (Sigma). RNA was prepared using QIAgen Rneasy method. […] It is also apparent from the data that NQO1 is induced at a higher level by exposure to DMF for 24 hrs compared to induction by a 6 hour exposure. Direct effects of BG00012 on specific astrocytic and microglial cells were tested in vitro using primary rat astrocytes and RAW264.7 macrophage cells.

[7] = test system: primary astrocytes; assay: Gene expression profiling of LPS stimulated primary astrocytes; type: cell-based, rat; conditions: LPS 0, 10, 100 ng/ml; DMF 0, 3, 10, 30 μM, FIG. 5
Experimental: Primary astrocytes were treated with LPS at 0, 10, and 100 ng/ml, as indicated, and also treated with DMF at 0, 3, 10, or 30 μM as indicated. The magnitude of expression of each gene under each condition was scaled from 0 to 1, so that differences in color represent changes in expression of each gene as the conditions varied. The darkest green color represents no detectable expression (0), while the brightest red color represents the highest expression measured for that gene (1). […] The induced expression of many of the markers was suppressed by DMF treatment.
Direct effects of BG00012 on specific astrocytic and microglial cells were tested in vitro using primary rat astrocytes and RAW264.7 macrophage cells.

[8] = test system: Nrf2; assay: Nrf2 Western blotting, primary rat astrocytes; type: cell-based; conditions: total cell lysates, GAPDH control, FIG. 9
Experimental: (§1) Total cell lysates were prepared from the astrocyte cultures treated as indicated above. Nrf2 was detected by Western blotting. GAPDH was included as a housekeeping protein control.

[9] = test system: Nrf2; assay: Nrf2 Western blotting, primary human astrocytes; type: cell-based; conditions: total cell lysates, GAPDH control, FIG. 9
Experimental: as §1

[10] = test system: primary rat astrocytes; assay: Global gene expression analysis (Affymetrix GeneChip) in astrocytes treated with DMF; type: cell-based; conditions: p<10^−7 versus untreated astrocytes, FIG. 10
Experimental: Global analysis of gene expression in astrocytes treated with DMF was performed using the Affymetrix GeneChip technology. […] The resulting gene list was annotated using the Ingenuity IPA database. […] Specific genes involved in cytoprotection and glutathione metabolism, identified in this assay, include, but are not limited to, Gsta2, Gsta3, Gclc, Ggt1, Txnrd1, Srxn1, Sqstm1, and Nqo1.

EC50 [2] [µM] | Structure (SMILES) | cell viability and relative total cell numbers (calcein AM) [1] | cellular ATP levels at the highest concentration of MMF [3] | EAE disease ([4]; 200 mg/kg) | EAE symptoms ([4]; various doses (5-200 mg/kg qd oral from day 3)) | activated astrocytes in grey matter of spinal cords (GFAP antibody) ([5]; 100 mg/kg DMF versus vehicle alone, FIG. 3) | myelin loss during EAE in rat spinal cords (Luxol Fast Blue morphometry) ([5]; FIG. 12) | LPS induced TNF expression (quantitative PCR) ([6]; DMF 24 hours, LPS 0, 10, 30 ng/ml 4 hrs prior to harvest, FIG. 4B) | GFAP expression (quantitative PCR) ([6]; DMF for 6 hrs and 24 hrs, FIG. 4A) | NQO1 expression (quantitative PCR) ([6]; DMF for 6 hrs and 24 hrs, FIG. 4C) | LPS-induced expression of Ccl20, Ccl3, Ccl4, Cxcl1, Cxcl10, Cxcl2, Cxcl3, Cxcl6, IL1a, II1b, Tnf, Ifit3, Zc3h12a [7] | levels of Nrf2 (Western blotting), primary rat astrocytes [8] | levels of Nrf2 (Western blotting), primary human astrocytes [9] | expression of Nrf2 target genes (incl. glutathione metabolism genes) [10]
5.4 | COC(=O)/C=C/C(=O)O [MMF, monomethyl fumarate] | No substantial concentration-dependent changes | appeared to reduce cellular ATP levels |  |  |  |  |  |  |  |  |  |  | 
 | COC(=O)/C=C/C(=O)OC [DMF, dimethyl fumarate] |  |  | completely abrogated disease | reduced EAE symptoms in a dose-dependent manner | fewer activated astrocytes | diminishes myelin loss | repressed by DMF in a dose dependent manner | inhibits GFAP expression in a concentration dependent manner | induces NQO1 expression in a concentration dependent manner | strongly suppressed | increase levels of Nrf2 | increase levels of Nrf2 | activates expression of Nrf2 target genes
